Patent US8952024B2, “Herbicidal pyrimidone derivatives” (E I du Pont de Nemours and Company, priority 2009, dated 2015)

Columns and labels:
[1] = test system: barnyardgrass (Echinochloa crus-galli); test: Test E flooded paddy rice and weeds; type: in vivo; conditions: applied to paddy water, 21 days, scale 0 to 100
From the text: (§1) Three plastic pots (ca. 16-cm diameter) for each application were partially filled with sterilized Tama silt loam soil comprising a 35:50:15 ratio of sand, silt and clay and 2.6% organic matter. Separate plantings for each of the three pots were as follows. Seeds from the U.S. of ducksalad (Heteranthera limosa), sedge (smallflower umbrella sedge, Cyperus difformis), ricefield bulrush (Scirpus mucronatus) and redstem (purple redstem, Ammannia coccinea), were planted into one 16-cm pot for each rate. Seeds from the U.S. of flatsedge (rice flatsedge, Cyperus iria), sprangletop (bearded (i.e. Brdd.) sprangletop, Leptochloa fascicularis), one stand of 9 or 10 water seeded rice seedlings (Oryza sativa cv. ‘Japonica—M202’), and two stands of 3 or 4 transplanted rice seedlings (Oryza sativa cv. ‘Japonica—M202’) were planted into one 16-cm pot for each rate. Seeds from the U.S. of barnyardgrass (Echinochloa crus-galli), late watergrass (Echinochloa oryzicola), early watergrass (Echinochloa oryzoides) and junglerice (Echinochloa colona) were planted into one 16-cm pot for each rate. Plantings were sequential so that crop and weed species were at the 2.0 to 2.5-leaf stage at time of treatment.
(§2) Potted plants were grown in a greenhouse with day/night temperature settings of 30/27° C., and supplemental balanced lighting was provided to maintain a 16-hour photoperiod. Test pots were maintained in the greenhouse until test completion.
(§3) At time of treatment, test pots were flooded to 3 cm above the soil surface, treated by application of test compounds directly to the paddy water, and then maintained at that water depth for the duration of the test. Effects of treatments on rice and weeds were visually evaluated by comparison to untreated controls after 21 days. Plant response ratings, summarized in Table E, are based on a scale of 0 to 100 where 0 is no effect and 100 is complete control. A dash (-) response means no test result.

[2] = test system: sedge (smallflower umbrella sedge, Cyperus difformis); test: Test E flooded paddy rice and weeds; type: in vivo; conditions: applied to paddy water, 21 days, scale 0 to 100
From the text: as §1, §2, §3

[3] = test system: transplanted rice seedlings (Oryza sativa cv. ‘Japonica—M202’); test: Test E flooded paddy rice and weeds; type: in vivo; conditions: applied to paddy water, 21 days, scale 0 to 100
From the text: as §1, §2, §3

[4] = test system: redstem (purple redstem, Ammannia coccinea); test: Test E flooded paddy rice and weeds; type: in vivo; conditions: applied to paddy water, 21 days, scale 0 to 100
From the text: as §1, §2, §3

[5] = test system: late watergrass (Echinochloa oryzicola); test: Test E flooded paddy rice and weeds; type: in vivo; conditions: applied to paddy water, 21 days, scale 0 to 100
From the text: as §1, §2, §3

[6] = test system: flatsedge (rice flatsedge, Cyperus iria); test: Test E flooded paddy rice and weeds; type: in vivo; conditions: applied to paddy water, 21 days, scale 0 to 100
From the text: as §1, §2, §3

[7] = test system: junglerice (Echinochloa colona); test: Test E flooded paddy rice and weeds; type: in vivo; conditions: applied to paddy water, 21 days, scale 0 to 100
From the text: as §1, §2, §3

[8] = test system: early watergrass (Echinochloa oryzoides); test: Test E flooded paddy rice and weeds; type: in vivo; conditions: applied to paddy water, 21 days, scale 0 to 100
From the text: as §1, §2, §3

[9] = test system: water seeded rice seedlings (Oryza sativa cv. ‘Japonica—M202’); test: Test E flooded paddy rice and weeds; type: in vivo; conditions: applied to paddy water, 21 days, scale 0 to 100
From the text: as §1, §2, §3

[10] = test system: ricefield bulrush (Scirpus mucronatus); test: Test E flooded paddy rice and weeds; type: in vivo; conditions: applied to paddy water, 21 days, scale 0 to 100
From the text: as §1, §2, §3

[11] = test system: ducksalad (Heteranthera limosa); test: Test E flooded paddy rice and weeds; type: in vivo; conditions: applied to paddy water, 21 days, scale 0 to 100
From the text: as §1, §2, §3

For `Cc1ccc(-n2c(-c3ccccc3)ncc(C(=O)C3=C(O)CCCC3=O)c2=O)c(C)c1` [Compound 28], the “Plant response rating, Barnyardgrass, Flood” value ([1]; 32 g ai/ha) was 0, the “Plant response rating, Barnyardgrass, Flood” value ([1]; 64 g ai/ha) was 0 and the “Plant response rating, Barnyardgrass, Flood” value ([1]; 125 g ai/ha) was 0. The “Plant response rating, Barnyardgrass, Flood” value ([1]; 250 g ai/ha) was 0, the “Plant response rating, Sedge, Umbrella, Flood” value (“Plant response rating, Sedge” for short) ([2]; 32 g ai/ha) was 0 and the “Plant response rating, Sedge” value ([2]; 64 g ai/ha) was 85. The “Plant response rating, Sedge” value ([2]; 125 g ai/ha) was 90, the “Plant response rating, Sedge” value ([2]; 250 g ai/ha) was 100 and the “Plant response rating, Rice, Transplanted, Flood” value ([3]; 32 g ai/ha) was 0. The “Plant response rating, Rice, Transplanted, Flood” value ([3]; 64 g ai/ha) was 15, the “Plant response rating, Rice, Transplanted, Flood” value ([3]; 125 g ai/ha) was 15 and the “Plant response rating, Rice, Transplanted, Flood” value ([3]; 250 g ai/ha) was 15. For the same compound, the “Plant response rating, Redstem, Flood” value ([4]; 32 g ai/ha) was 0, the “Plant response rating, Redstem, Flood” value ([4]; 64 g ai/ha) was 40 and the “Plant response rating, Redstem, Flood” value ([4]; 125 g ai/ha) was 50. The “Plant response rating, Redstem, Flood” value ([4]; 250 g ai/ha) was 90, the “Plant response rating, Watergrass, Late, Flood” value ([5]; 32 g ai/ha) was 0 and the “Plant response rating, Watergrass, Late, Flood” value ([5]; 64 g ai/ha) was 0. For the same compound, the “Plant response rating, Watergrass, Late, Flood” value ([5]; 125 g ai/ha) was 0, the “Plant response rating, Watergrass, Late, Flood” value ([5]; 250 g ai/ha) was 0 and the “Plant response rating, Flatsedge, Rice, Flood” value ([6]; 32 g ai/ha) was 0. For the same compound, the “Plant response rating, Flatsedge, Rice, Flood” value ([6]; 64 g ai/ha) was 0, the “Plant response rating, Flatsedge, Rice, Flood” value ([6]; 125 g ai/ha) was 0 and the “Plant response rating, Flatsedge, Rice, Flood” value ([6]; 250 g ai/ha) was 45. For the same compound, the “Plant response rating, Junglerice, Flood” value ([7]; 32 g ai/ha) was 0, the “Plant response rating, Junglerice, Flood” value ([7]; 64 g ai/ha) was 0 and the “Plant response rating, Junglerice, Flood” value ([7]; 125 g ai/ha) was 0. For the same compound, the “Plant response rating, Junglerice, Flood” value ([7]; 250 g ai/ha) was 0, the “Plant response rating, Watergrass, Early, Flood” value ([8]; 32 g ai/ha) was 0 and the “Plant response rating, Watergrass, Early, Flood” value ([8]; 64 g ai/ha) was 0. For the same compound, the “Plant response rating, Watergrass, Early, Flood” value ([8]; 125 g ai/ha) was 0, the “Plant response rating, Watergrass, Early, Flood” value ([8]; 250 g ai/ha) was 20 and the “Plant response rating, Rice, Water Seeded, Flood” value ([9]; 32 g ai/ha) was 45. For the same compound, the “Plant response rating, Rice, Water Seeded, Flood” value ([9]; 64 g ai/ha) was 60, the “Plant response rating, Rice, Water Seeded, Flood” value ([9]; 125 g ai/ha) was 65 and the “Plant response rating, Rice, Water Seeded, Flood” value ([9]; 250 g ai/ha) was 85. The “Plant response rating, Bulrush, Ricefield, Flood” value (“Plant response rating, Bulrush” for short) ([10]; 32 g ai/ha) was 20, the “Plant response rating, Bulrush” value ([10]; 64 g ai/ha) was 30 and the “Plant response rating, Bulrush” value ([10]; 125 g ai/ha) was 35. The “Plant response rating, Bulrush” value ([10]; 250 g ai/ha) was 65, the “Plant response rating, Ducksalad, Flood” value ([11]; 32 g ai/ha) was 0 and the “Plant response rating, Ducksalad, Flood” value ([11]; 64 g ai/ha) was 0. The “Plant response rating, Ducksalad, Flood” value ([11]; 125 g ai/ha) was 80 and the “Plant response rating, Ducksalad, Flood” value ([11]; 250 g ai/ha) was 100.
In the case of `O=C1CCCC(O)=C1C(=O)c1cnc(-c2ccccc2)n(Cc2ccccc2)c1=O` [Compound 17, 5-[(2-hydroxy-6-oxo-1-cyclohexen-1-yl)carbonyl]-2-phenyl-3-(phenylmethyl)-4(3H)-pyrimidinone], the melting point is reported as 57 to 58 °C.
